Assay results published in EP3922250A1, “COMPOSITION FOR CORRECTING THE BEHAVIOUR OF CATS AND DOGS” (priority 2019, dated 2021).
Several values for one entry are separate records, joined by “and”; a condition that tells them apart may be missing. Equal values may be shown once. Where a name gives a salt, the structure may show the parent alone.

Legend:
[1] = in vivo; cited from earlier work
domestic cats = details: 48 to 50 mg per capita (averaging 10 to 14 mg/kg), one hour after administration
Description: Based on the data obtained by observing animals under stress, the most frequent symptoms of anxiety and fear common to various stressful situations were selected to assess the severity of their abnormal behavior. They included vocalizing, hypersalivation, overgrooming, abnormal (higher or lower) motion activity, soiling (urination and/or defecation), and 'destructive behavior' consisting in signs of aggression, attempts at damaging ambient objects, etc. For each symptom (based on its severity), points from 0 to 2 were given, which subsequently were totalized individually for each animal or, where appropriate, for a whole group of animals to determine an average value.
For each of the 6 symptoms (based on its severity), points from 0 to 2 were given, which subsequently were totalized individually for each animal. Therein, a total score of more than 6 points (out of possible 12) was considered to be indicative of an apparent severity of abnormal (changed) behavior.
To carry out the experiment, 6 domestic cats of different sex and age, weighing 3.5 to 5 kg, were selected, who, according to their owners, felt bad during transportation, showing various forms of abnormal behavior. Herein, the actual presence of stress symptoms and their severity for each cat were assessed from video data provided by their owners. […]

male cats = system: male cats
Description: The trials enrolled apparently healthy entire animals (8 male cats and 8 female cats) aged 2 to 6 years, weighing 3 to 4 kg, kept in foster care at BIM Animal Shelter. The females were introduced into the study as they went into estrus. Table XII. Registration details of the cats enrolled in the experiment
Male cats with pronounced signs of heat were placed in individual cages in a dedicated room where 2 female cats in heat were present (in separate cages in the same room). TR Succinate in the tablet form (for the experimental animals) and placebo tablets (for the control animals) were given in accordance with the same design as in the experiment with female cats. Follow-up observation over the animals was carried out in a similar manner.

female cats = experiment: Suppression of behavioral signs of heat in female cats
White Mice = experiment: Acute oral toxicity testing, intragastric administration (Miller and Tainter); details: for % of deaths / Number of Animals dead: 10 per group, 14 days follow-up
Description: (§1) This parameter was evaluated on mice and rats in accordance with a conventional procedure for acute toxicity testing of medicinal products (Example 2).
(§2) In each case, 7 experimental groups and 1 control group of white rats and 7 experimental and 1 control groups of white mice, 10 individuals in each, were formed. The product was administered via an intragastric tube in accordance with the design described in Table I. 1% starch gel was used as the suspending agent.
(§3) Follow-up period was 14 days. The observation included general condition, behavior, feed and water intake, manifestation of intoxication symptoms, possible deaths.

White Rats = experiment: as above; details: for % of deaths / Number of Animals dead: 10 per group, 14 days follow-up
Description: as §1, §2, §3

[2] = one 100 mg tablet (24 mg active ingredient, 6-8 mg/kg) oral, individual male cats
[3] = female and male cats in heat, single dose 6-8 mg/kg
[4] = one 100 mg tablet (24 mg active ingredient, 6-8 mg/kg) oral, individual female cats
[5] = substance, intragastric, in 1% starch gel
[6] = substance, intragastric, in 1% starch gel, 20160 min

O=c1n(CCCN2CCN(c3cccc(Cl)c3)CC2)nc2ccccn12 [TR, Trazodone]
amount of plasma protein binding [1]: 89-95% | excreted from the body via the kidneys [1]: 75% | excreted unchanged with bile [1]: about 20% | time to reach complete excretion of the substance [1]: 98 h

O=c1n(CCCN2CCN(c3cccc(Cl)c3)CC2)nc2ccccn12 [Trazodone Hydrochloride, reference compound]
sedative action onto the animals (domestic cats): pronounced sedative actions of comparable efficacy

Trazodone Succinate
abnormal behaviors (male cats; in vivo): no abnormal behaviors were observed | Total intensity of heat signs after the product administration (points) after 30 minutes (male cats; [2]): 5 points (3×) and 6 points and 4 points (2×) | Total intensity of heat signs after the product administration (points) after 3 hours (male cats; [2]): 1 points (4×) and 2 points (2×) | Total intensity of heat signs after the product administration (points) after 6 hours (male cats; [2]): 2 points (4×) and 1 points (2×) | sedative action onto the animals (domestic cats): pronounced sedative actions of comparable efficacy | side effects, such as pronounced hypnotic action, atony, slowness or dystaxia (female cats; experimental group female cats, during the experiment): No side effects | start of the sedative action after the product administration (female cats; [3]): 30 min | time the sedative action remained (female cats; [3]): at least 6 hours | time to maximum sedative action (substantially complete disappearance of estrous behavior signs) (female cats; [3]): 1 h | Total intensity of heat signs after the product administration (points) after 30 minutes (female cats; [4]): 5 points (3×) and 6 points and 4 points (2×) | Total intensity of heat signs after the product administration (points) after 1 hour (female cats; [4]): 0 points (4×) and 1 points (2×) | Total intensity of heat signs after the product administration (points) after 3 hours (female cats; [4]): 1 points (5×) and 2 points | Total intensity of heat signs after the product administration (points) after 6 hours (female cats; [4]): 2 points (4×) and 1 points (2×) | Total intensity of heat signs after the product administration (points) after 8 hours (female cats; [4]): 4 points (2×) and 1 points (3×) and 5 points | % of deaths (White Mice; 400 mg/kg intragastric): 0% | Number of Animals dead (White Mice; 400 mg/kg intragastric): 0 | % of deaths (White Mice; 800 mg/kg intragastric): 10.0% | Number of Animals dead (White Mice; 800 mg/kg intragastric): 1 | % of deaths (White Mice; 1600 mg/kg intragastric): 70.0% | Number of Animals dead (White Mice; 1600 mg/kg intragastric): 7 | % of deaths (White Mice; 2000 mg/kg intragastric): 100.0% | Number of Animals dead (White Mice; 2000 mg/kg intragastric): 10 | % of deaths (White Mice; 2500 mg/kg intragastric): 100.0% | Number of Animals dead (White Mice; 2500 mg/kg intragastric): 10 | % of deaths (White Mice; 3000 mg/kg intragastric): 100.0% | Number of Animals dead (White Mice; 3000 mg/kg intragastric): 10 | Hazard class according to GOST 12.1.007-76 (White Mice; classified from the LD50 values in mice and rats): Hazard Class III | LD16 (White Mice; [5]): 840 mg/kg | LD84 (White Mice; [5]): 1690 mg/kg | LD100 (White Mice; [5]): 1935 mg/kg | LD50 (White Mice; [6]): 1200 (1091.6-1308.4) mg/kg | MTD (White Mice; [6]): 400 mg/kg | % of deaths (White Rats; 400 mg/kg intragastric): 0% | Number of Animals dead (White Rats; 400 mg/kg intragastric): 0 | % of deaths (White Rats; 800 mg/kg intragastric): 20.0% | Number of Animals dead (White Rats; 800 mg/kg intragastric): 2 | % of deaths (White Rats; 1600 mg/kg intragastric): 40.0% | Number of Animals dead (White Rats; 1600 mg/kg intragastric): 4 | % of deaths (White Rats; 2700 mg/kg intragastric): 70.0% | Number of Animals dead (White Rats; 2700 mg/kg intragastric): 7 | % of deaths (White Rats; 3000 mg/kg intragastric): 100.0% | Number of Animals dead (White Rats; 3000 mg/kg intragastric): 10 | % of deaths (White Rats; 3500 mg/kg intragastric): 100.0% | Number of Animals dead (White Rats; 3500 mg/kg intragastric): 10 | LD16 (White Rats; [5]): 760 mg/kg | LD84 (White Rats; [5]): 2730 mg/kg | LD100 (White Rats; [5]): 2945 mg/kg | LD50 (White Rats; [6]): 2300 (2079.5-2520.5) mg/kg | MTD (White Rats; [6]): 400 mg/kg
